Data as given in patent US20200282101A1, “BIODEGRADABLE TUMOR SEALANT” (MediGear International Corporation, priority 2015, published 2020).

Legend:
[1] = Liquid crystal structure analysis by small-angle X-ray scattering (SAXS); format: physicochemical; details: atmospheric pressure
Protocol: The liquid crystal structure of the aforementioned gelatinous composition was analyzed by small-angle X-ray scattering (SAXS) using the NANO Viewer nanoscale X-ray structural evaluation system (Rigaku). As a result of measuring the aforementioned gelatinous composition packed into pinhole slits under atmospheric pressure, a graph of SAXS intensity distribution (FIG. 3(1)) and peak search results (FIG. 3(2)) were obtained.
The liquid crystal structures of the aforementioned gelatinous compositions were analyzed by small-angle X-ray scattering (SAXS) using the SmartLab high-luminance in-plane X-ray diffraction system (Rigaku). The aforementioned gelatinous composition packed into pinhole slits were measured under atmospheric pressure.
Liquid crystal structure of the aforementioned emulsion was analyzed by small-angle X-ray scattering (SAXS) using the NANO Viewer nanoscale X-ray structural evaluation system (Rigaku). As a result of introducing the emulsion into a capillary tube under atmospheric pressure and measuring with the system at reduced pressure (although the sample per se was at atmospheric pressure), a graph of SAXS intensity distribution (FIG. 5(1)) and peak search results (FIG. 5(2)) were obtained.
The aforementioned emulsion was measured by SAXS in the same manner as Example 4. […]

[2] = Stability of liquid crystal gelatinous composition in human serum; format: in vitro ADME
Protocol: Approximately 100 μL of mono-O-(5,9,13-trimethyltetradeca-4-enoyl)glycerol or approximately 100 μL each of mixed solutions of mono-O-(5,9,13-trimethyltetradeca-4-enoyl)glycerol and Lipiodol at a weight ratio of 10:1, 10:2 or 10:3 were respectively added to vials containing 2 mL of human serum (Human OTC Serum, Access Biologicals). After gently shaking each vial to cause the formation of a gelatinous composition, the vials were allowed to stand undisturbed in a water bath at 37° C. followed by observing immediately thereafter, 10 hours later and 24 hours later.
FIG. 13 depicts captured images indicating changes over time in samples consisting of approximately 100 μL of mono-O-(5,9,13-trimethyltetradeca-4-enoyl)glycerol.

[3] = Viscosity measurement of the synthesized compound; format: physicochemical; details: shear rate: 92 1/s
Description: The results of measuring the ^1H-NMR spectrum and viscosity of the resulting compound were as shown below.
Viscosity: 0.48 Pa·s (shear rate: 92 1/s)

[4] = Formation of gelatinous composition on mixing with physiological saline; format: physicochemical; details: 50% by weight or more of physiological saline, separated saline removed
Protocol: An aqueous medium in the form of a 50% by weight or more of physiological saline was added to mono-O-(5,9,13-trimethyltetradeca-4-enoyl)glycerol followed by carrying out a mixing procedure and removing the separated physiological saline.
Mono-O-(5,9,13-trimethyltetradeca-4-enoyl)glycerol and a contrast agent in the form of Lipiodol were mixed at mixing ratios of 10:5, 70:30, 10:3, 80:20, 10:2, 90:10 and. 10:1. An aqueous medium in the form of 50% by weight or more of physiological saline was added to each mixture followed by carrying out a mixing procedure and removing the separated physiological saline to respectively obtain mixtures.

Liquid crystal structure (SAXS) [1]: inverse hexagonal liquid crystal
Change of human serum with passage of time ([2]; approx. 100 μL in 2 mL human serum, 37° C., up to 24 hours): gradually became cloudy
Change of gelatinous composition in distilled water instead of human serum ([2]; distilled water, within 24 hours): no change in the gelatinous composition
Viscosity [3]: 0.48 Pa·s
Appearance of composition after mixing with physiological saline [4]: cloudy to colorless, clear gel
Structure (SMILES): CC(=CCCC(=O)OCC(O)CO)CCCC(C)CCCC(C)C (stereo not drawn) [Example 1, Mono-O-(5,9,13-trimethyltetradeca-4-enoyl)glycerol]
Observation in human serum 10 hours after addition ([2]; human serum, 37° C., 10 hours): Cloudiness can be seen to have progressed
Observation in human serum 24 hours after addition ([2]; human serum, 37° C., 24 hours): Cloudiness had progressed even further, although the gelatinous composition remained
Main eluted components by TLC analysis ([2]; human serum, 37° C., 24 hours after addition): mono-O-(5,9,13-trimethyltetradeca-4-enoyl)glycerol and (5,9,13-trimethyl-4-tetradecanoic)carboxylate obtained as a result of hydrolysis
Observation in human serum immediately after addition ([2]; human serum, 37° C., immediately after addition): a gelatinous composition formed and the human serum remained clear
